According to patent US20080306116A1, “ARYLOXAZOLE, ARYLOXADIAZOLE AND BENZIMIDAZOLE DERIVATIVES” (priority 2007, published 2008):
pKi: −log10 of the molar value.

The compounds below were run against T1, human subtype 5 somatostatin receptor (Homo sapiens, UniProt P35346) (assay: radioligand replacement (binding) assay, membranes of CHO cells expressing human SSTR5, 125I-labeled 11-Tyr somatostatin-14 tracer). Details: CHO cell membranes, 0.05 nM 125I-labeled 11-Tyr somatostatin-14, 1 h at rt; Ki calculated from IC50 by Cheng-Prussoff equation; read-out: hSSTR5 Ki.
T1 construct: host or cells: CHO cell line, stably transfected; membranes used
T1 sequence (P35346 whole entry): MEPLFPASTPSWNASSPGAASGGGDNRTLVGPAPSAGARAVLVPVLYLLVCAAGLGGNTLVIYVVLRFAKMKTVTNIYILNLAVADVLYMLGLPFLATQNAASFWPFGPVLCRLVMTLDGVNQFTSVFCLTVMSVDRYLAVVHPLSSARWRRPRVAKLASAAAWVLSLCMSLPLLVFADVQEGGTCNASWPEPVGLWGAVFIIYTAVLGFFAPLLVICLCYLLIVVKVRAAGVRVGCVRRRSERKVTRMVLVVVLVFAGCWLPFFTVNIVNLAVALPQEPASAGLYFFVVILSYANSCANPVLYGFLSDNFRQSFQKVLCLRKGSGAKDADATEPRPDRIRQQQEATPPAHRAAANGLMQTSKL
Description: A CHO cell line stably transfected with a plasmid encoding the human subtype 5 somatostatin receptor (GenBank accession number D16827) was obtained from Euroscreen. Cells were cultured and used for binding and functional assays.
Membranes of these cells were prepared by sonication in the presence of protease inhibitors and subsequent fractionating centrifugation. The protein concentration in the membrane preparation was determined using a commercial kit (BCA kit, Pierce, USA). Membranes were stored at −80° C. until use. After thawing membranes were diluted in assay buffer (50 mM Tris-HCl at pH 7.4, 5 mM MgCl2 and 0.20% BSA) and subjected to dounce homogenization.
For binding studies, 0.1 mL membrane suspension, corresponding to approximately 6×10^−15 mol receptor, was incubated for 1 h at rt with 0.05 nM ^125I-labeled tracer (11-Tyr somatostatin-14, Perkin-Elmer) and either test compound in varying concentrations or, for the determination of non-specific binding, 0.001 mM non-labeled somatostatin-14. The incubation was stopped by filtration through GF/B glassfiber filters and washing with ice-cold wash buffer (50 mM Tris-HCl at pH 7.4). The bound radioactivity was measured after application of a scintillation cocktail (Microscint 40) and expressed as disintegrations per minute (dpm).
The receptor concentration was determined in a prior saturation experiment where a fixed, arbitrary amount of membranes was incubated with a concentration range of radio-labeled tracer. This allows estimating the total number of specific binding sites per amount of protein (i.e., Bmax), typically between 1 and 5 pmol/mg.
The concentration of the test compound required to result in half maximal inhibition of binding of the radio-labeled tracer (IC50) was estimated from a concentration-versus-dpm graph. The binding affinity (Ki) was calculated from the IC50 by applying the Cheng-Prussoff equation for single binding sites.

pKi	SMILES
7.13	CCOc1cc(CN2CCC(Nc3nc(-c4ccccc4)no3)CC2)ccc1C [Example 1, [1-(3-Ethoxy-4-methyl-benzyl)-piperidin-4-yl]-(3-phenyl-[1,2,4]oxadiazol-5-yl)-amine]
7.04	CCOc1cc(CN2CCC(Nc3nc(-c4ccccc4)no3)CC2)ccc1Cl [Example 2, [1-(4-Chloro-3-ethoxy-benzyl)-piperidin-4-yl]-(3-phenyl-[1,2,4]oxadiazol-5-yl)-amine]
6.35	CCOc1cc(CN2CCC(Nc3nc(-c4ccccc4)no3)CC2)cc2c1OC(C)(C)C=C2 [Example 7, [1-(8-Ethoxy-2,2-dimethyl-2H-chromen-6-ylmethyl)-piperidin-4-yl]-(3-phenyl-[1,2,4]oxadiazol-5-yl)-amine]
7.39	CCOc1cc(CN2CCC(Nc3nc(-c4ccccc4)no3)CC2)cc(OCC)c1N [Example 9, [1-(4-Amino-3,5-diethoxy-benzyl)-piperidin-4-yl]-(3-phenyl-[1,2,4]oxadiazol-5-yl)-amine]
7.38	CCOc1cc(CN2CCC(Nc3nc4ccccc4n3C)CC2)ccc1Cl [Example 11, [1-(4-Chloro-3-ethoxy-benzyl)-piperidin-4-yl]-(1-methyl-1H-benzoimidazol-2-yl)-amine]
7.46	CC(C)Oc1cc(CN2CCC(Nc3nc4ccccc4n3C)CC2)cc(OC(C)C)c1 [Example 13, [1-(3,5-Diisopropoxy-benzyl)-piperidin-4-yl]-(1-methyl-1H-benzoimidazol-2-yl)-amine]
7.32	CCOc1cc(CN2CCC(Nc3nc(-c4cccc(OC)c4)co3)CC2)cc(OCC)c1-c1ccc(F)cc1 [Example 15, [1-(2,6-Diethoxy-4′-fluoro-biphenyl-4-ylmethyl)-piperidin-4-yl]-[4-(3-methoxy-phenyl)-oxazol-2-yl]-amine]
7.59	CCOc1cc(CN2CCC(Nc3nc(-c4ccc(F)cc4)co3)CC2)cc(OCC)c1F [Example 19, [1-(3,5-Diethoxy-fluoro-benzyl)-piperidin-4yl]-[4-(4-fluoro-phenyl)-oxazol-2-yl]-amine]
7.57	CCOc1cc(CN2CCC(Nc3nc(-c4ccccc4)co3)CC2)cc(OCC)c1-c1ccc(F)cc1 [Example 24]
8.10	CCOc1cc(CN2CCC(Nc3nc(-c4ccc(Cl)cc4)co3)CC2)cc(OCC)c1Cl [Example 27, [1-(4-Chloro-3,5-diethoxy-benzyl)-piperidin-4-yl]-[4(4-chloro-phenyl)oxazol-2-yl]-amine]
7.55	CCOc1cc(CN2CCC(Nc3ncc(-c4ccccc4)o3)CC2)cc(OCC)c1-c1ccc(F)cc1 [Example 33, [1-(2,6-Diethoxy-4′-fluoro-biphenyl-4-ylmethyl)-piperidin-4-yl]-(5-phenyl-oxazol-2-yl)-amine]
7.92	CCOc1cc(CN2CCC(Nc3ncc(-c4ccccc4)o3)CC2)cc(OCC)c1Cl [Example 37, [1-(4-Chloro-3,5-diethoxy-benzyl)-piperidin-4-yl]-(5-phenyl-oxazol-2-yl)amine]
7.34	CCOc1cc(CN2CCC(Nc3ncc(-c4ccc(OC)cc4)o3)CC2)cc(OCC)c1-c1ccc(F)cc1 [Example 40, [1-(2,6-Diethoxy-4′-fluoro-bipehenyl-4-ylmethyl)-piperidin-4-yl]-[5-(4-methoxy-phenyl)-oxazol-2-yl]-amine]
7.92	CCOc1cc(CN2CCC(Nc3ncc(-c4ccccc4)o3)CC2)cc(OCC)c1C [Example 46, [1-(3,5-Diethoxy-4-methyl-benzyl)-piperidin-4-yl]-(5-phenyl-oxazol-2-yl)-amine]
7.14	CCOc1cc(CN2CCC(Nc3nc(-c4ccc(C(F)(F)F)cc4)co3)CC2)cc(OCC)c1-c1ccc(F)cc1 [Example 49]

SMILES	pKi
COc1ccc(CN2CCC(Nc3nc(-c4ccccc4)no3)CC2)cc1OCC(C)C [Example 5, [1-(3-Isobutoxy-4-methoxy-benzyl)piperidin-4-yl]-(3-phenyl-[1,2,4]oxadiazol-5-yl)-amine]	6.94
